In the experiment the test system is TPM3-NTRK1-wt IC50 / primary target (e.g. CD74-ROS1-wt) IC50, Ba/F3 cells. Briefly: Cell assay TRKA selectivity (TRKA potency divided by primary target potency). The experiment is classed as cell-based. As to conditions: for TPM3-NTRK1-wt/CD74-ROS1-G2032R: TRKA selectivity ratio: TPM3-NTRK1-wt IC50 / CD74-ROS1-G2032R IC50, Ba/F3 cells; for TPM3-NTRK1-wt/CD74-ROS1-wt: TRKA selectivity ratio: TPM3-NTRK1-wt IC50 / CD74-ROS1-wt IC50, Ba/F3 cells; for TPM3-NTRK1-wt/EML4-ALK-L1196M-G1202R: TRKA selectivity ratio: TPM3-NTRK1-wt IC50 / EML4-ALK-L1196M-G1202R IC50, Ba/F3 cells; for TPM3-NTRK1-wt/EML4-ALK-wt: TRKA selectivity ratio: TPM3-NTRK1-wt IC50 / EML4-ALK-wt IC50, Ba/F3 cells. The method in brief: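 Ratio of TRKA to primary-target cellular IC50 (e.g. TPM3-NTRK1-wt/CD74-ROS1-wt), grouped into bins A >30, B >10, C ≥1, D <1. Each IC50 came from engineered Ba/F3 fusion lines grown without IL-3, dosed for 72 h and read as CellTiter-Glo luminescence, with a four-parameter logistic fit.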

With `C[C@H]1Oc2cc(cnc2N)-c2c(nnn2CC2CC2)Cc2cc(F)cnc2-c2ccc(F)cc21` [Example 106, (20R)-3-(cyclopropylmethyl)-10,17-difluoro-20-methyl-21-oxa-3,4,5,12,24-pentaazapentacyclo[20.3.1.0^2,^6.0^8,^13.0^14,^19]hexacosa-1(25),2(6),4,8(13),9,11,14,16,18,22(26),23-undecaen-23-amine], the TPM3-NTRK1-wt/CD74-ROS1-G2032R result is “A (bin A for very high selectivity, ratio>30-fold)”; the TPM3-NTRK1-wt/CD74-ROS1-wt result is “A (bin A for very high selectivity, ratio>30-fold)”; the TPM3-NTRK1-wt/EML4-ALK-L1196M-G1202R entry was “B (bin B for high selectivity, ratio>10-fold)”; the TPM3-NTRK1-wt/EML4-ALK-wt result was “A (bin A for very high selectivity, ratio>30-fold)”.
In the case of `CCn1nnc2c1-c1cnc(N)c(c1)O[C@H](C)c1cc(F)ccc1-n1nc(C(F)(F)F)cc1C2` [Example 107, (19R)-3-ethyl-16-fluoro-19-methyl-10-(trifluoromethyl)-20-oxa-3,4,5,11,12,23-hexaazapentacyclo[19.3.1.0^2,^6.0^8,^12.0^13,^18]pentacosa-1(24),2(6),4,8,10,13,15,17,21(25),22-decaen-22-amine], the TPM3-NTRK1-wt/CD74-ROS1-G2032R entry is given as “A (bin A for very high selectivity, ratio>30-fold)”; the TPM3-NTRK1-wt/CD74-ROS1-wt entry is “A (bin A for very high selectivity, ratio>30-fold)”; the TPM3-NTRK1-wt/EML4-ALK-L1196M-G1202R result is listed as “C (bin C for moderate selectivity, ratio≥1)”; the TPM3-NTRK1-wt/EML4-ALK-wt result was “C (bin C for moderate selectivity, ratio≥1)”.
For the molecule `C[C@H]1Oc2cc(cnc2N)-c2c(nnn2CC2CC2)Cc2cc(Cl)nn2-c2ccc(F)cc21` [Example 108, (19R)-10-chloro-3-(cyclopropylmethyl)-16-fluoro-19-methyl-20-oxa-3,4,5,11,12,23-hexaazapentacyclo[19.3.1.0^2,^6.0^8,^12.0^13,^18]pentacosa-1(24),2(6),4,8,10,13,15,17,21(25),22-decaen-22-amine], the TPM3-NTRK1-wt/CD74-ROS1-G2032R entry is given as “A (bin A for very high selectivity, ratio>30-fold)”; the TPM3-NTRK1-wt/CD74-ROS1-wt result is on record as “A (bin A for very high selectivity, ratio>30-fold)”; the TPM3-NTRK1-wt/EML4-ALK-L1196M-G1202R result is “B (bin B for high selectivity, ratio>10-fold)”; the TPM3-NTRK1-wt/EML4-ALK-wt result is on record as “A (bin A for very high selectivity, ratio>30-fold)”.
For `Cc1cc2n(n1)-c1ccc(F)cc1[C@@H](C)Oc1cc(cnc1N)-c1c(cnn1CC1CC1)C2` [Example 109, (19R)-3-(cyclopropylmethyl)-16-fluoro-10,19-dimethyl-20-oxa-3,4,11,12,23-pentaazapentacyclo[19.3.1.0^2,^6.0^8,^12.0^13,^18]pentacosa-1(24),2(6),4,8,10,13,15,17,21(25),22-decaen-22-amine], the TPM3-NTRK1-wt/CD74-ROS1-G2032R result is “A (bin A for very high selectivity, ratio>30-fold)”; the TPM3-NTRK1-wt/CD74-ROS1-wt result is “A (bin A for very high selectivity, ratio>30-fold)”; the TPM3-NTRK1-wt/EML4-ALK-L1196M-G1202R result was “A (bin A for very high selectivity, ratio>30-fold)”; the TPM3-NTRK1-wt/EML4-ALK-wt entry is on record as “A (bin A for very high selectivity, ratio>30-fold)”.
Regarding `Nc1ncc2cc1OCc1cc(F)ccc1-n1nc(Cl)cc1Cc1nnn(CC3CC3)c1-2` [Example 110, 10-chloro-3-(cyclopropylmethyl)-16-fluoro-20-oxa-3,4,5,11,12,23-hexaazapentacyclo[19.3.1.0^2,^6.0^8,^12.0^13,^18]pentacosa-1(24),2(6),4,8,10,13,15,17,21(25),22-decaen-22-amine], the TPM3-NTRK1-wt/CD74-ROS1-G2032R result is “A (bin A for very high selectivity, ratio>30-fold)”; the TPM3-NTRK1-wt/CD74-ROS1-wt result is “A (bin A for very high selectivity, ratio>30-fold)”; the TPM3-NTRK1-wt/EML4-ALK-L1196M-G1202R result was “A (bin A for very high selectivity, ratio>30-fold)”; the TPM3-NTRK1-wt/EML4-ALK-wt result is “A (bin A for very high selectivity, ratio>30-fold)”.
On to `C[C@H]1Oc2cc(cnc2N)-c2c(nn(C)c2C#N)Cc2cn(C)nc2-c2ccc(F)cc21` [Example 111, (19R)-22-amino-16-fluoro-4,10,19-trimethyl-20-oxa-4,5,10,11,23-pentaazapentacyclo[19.3.1.0^2,^6.0^8,^12.0^13,^18]pentacosa-1(24),2,5,8,11,13,15,17,21(25),22-decaene-3-carbonitrile], for which the TPM3-NTRK1-wt/CD74-ROS1-G2032R entry is reported as “B (bin B for high selectivity, ratio>10-fold)”; the TPM3-NTRK1-wt/CD74-ROS1-wt result is given as “A (bin A for very high selectivity, ratio>30-fold)”; the TPM3-NTRK1-wt/EML4-ALK-L1196M-G1202R entry is “C (bin C for moderate selectivity, ratio≥1)”; the TPM3-NTRK1-wt/EML4-ALK-wt entry is “A (bin A for very high selectivity, ratio>30-fold)”.
For the molecule `C[C@H]1Oc2cc(cnc2N)-c2c(nn(C)c2C#N)Cc2cccnc2-c2ccc(F)cc21` [Example 112, (20R)-23-amino-17-fluoro-4,20-dimethyl-21-oxa-4,5,12,24-tetraazapentacyclo[20.3.1.0^2,^6.0^8,^13.0^14,^19]hexacosa-1(25),2,5,8(13),9,11,14,16,18,22(26),23-undecaene-3-carbonitrile], the TPM3-NTRK1-wt/CD74-ROS1-G2032R result is on record as “C (bin C for moderate selectivity, ratio≥1)”; the TPM3-NTRK1-wt/CD74-ROS1-wt entry is “A (bin A for very high selectivity, ratio>30-fold)”; the TPM3-NTRK1-wt/EML4-ALK-L1196M-G1202R entry is recorded as “D (bin D for low selectivity, ratio<1)”; the TPM3-NTRK1-wt/EML4-ALK-wt result is given as “A (bin A for very high selectivity, ratio>30-fold)”.
With `Cn1nc(C#N)c2c1Cc1cc(Cl)nn1-c1ccc(F)cc1COc1cc-2cnc1N` [Example 113, 22-amino-10-chloro-16-fluoro-5-methyl-20-oxa-4,5,11,12,23-pentaazapentacyclo[19.3.1.0^2,^6.0^8,^12.0^13,^18]pentacosa-1(24),2(6),3,8,10,13,15,17,21(25),22-decaene-3-carbonitrile], the TPM3-NTRK1-wt/CD74-ROS1-G2032R result is given as “A (bin A for very high selectivity, ratio>30-fold)”; the TPM3-NTRK1-wt/CD74-ROS1-wt entry is listed as “A (bin A for very high selectivity, ratio>30-fold)”; the TPM3-NTRK1-wt/EML4-ALK-L1196M-G1202R result is on record as “C (bin C for moderate selectivity, ratio≥1)”; the TPM3-NTRK1-wt/EML4-ALK-wt result is recorded as “A (bin A for very high selectivity, ratio>30-fold)”.
In the case of `Cc1nc2c(s1)Cc1nnn(CC3CC3)c1-c1cnc(N)c(c1)O[C@H](C)c1cc(F)ccc1-2` [Example 114, (19R)-3-(cyclopropylmethyl)-16-fluoro-10,19-dimethyl-20-oxa-9-thia-3,4,5,11,23-pentaazapentacyclo[19.3.1.0^2,^6.0^8,^12.0^13,^18]pentacosa-1(24),2(6),4,8(12),10,13,15,17,21(25),22-decaen-22-amine], the TPM3-NTRK1-wt/CD74-ROS1-G2032R entry is reported as “A (bin A for very high selectivity, ratio>30-fold)”; the TPM3-NTRK1-wt/CD74-ROS1-wt result was “A (bin A for very high selectivity, ratio>30-fold)”; the TPM3-NTRK1-wt/EML4-ALK-L1196M-G1202R entry is “A (bin A for very high selectivity, ratio>30-fold)”; the TPM3-NTRK1-wt/EML4-ALK-wt entry was “A (bin A for very high selectivity, ratio>30-fold)”.
On to `Cc1nc2c(s1)Cc1c(c(C#N)nn1C)-c1cnc(N)c(c1)OCc1cc(F)ccc1-2` [Example 115, 22-amino-16-fluoro-5,10-dimethyl-20-oxa-9-thia-4,5,11,23-tetraazapentacyclo[19.3.1.0^2,^6.0^8,^12.0^13,^18]pentacosa-1(24),2(6),3,8(12),10,13,15,17,21(25),22-decaene-3-carbonitrile], for which the TPM3-NTRK1-wt/CD74-ROS1-G2032R result was “A (bin A for very high selectivity, ratio>30-fold)”; the TPM3-NTRK1-wt/CD74-ROS1-wt entry is on record as “A (bin A for very high selectivity, ratio>30-fold)”; the TPM3-NTRK1-wt/EML4-ALK-L1196M-G1202R result is given as “B (bin B for high selectivity, ratio>10-fold)”; the TPM3-NTRK1-wt/EML4-ALK-wt entry was “A (bin A for very high selectivity, ratio>30-fold)”.
